Data from paper PMC6862250, “Lipophilicity Determination of Quaternary (Fluoro)Quinolones by Chromatographic and Theoretical Approaches” (International Journal of Molecular Sciences, 2019).

Columns and labels:
Type in all cases: physicochemical
[1] = RP-TLC lipophilicity, silica gel C8, methanol-water; conditions: for C 0: RP-TLC silica gel C8, C0 = −RM^0/b; for PC1: RP-TLC silica gel C8, first principal component of RM values, contains 83.57% of information; for mRM: RP-TLC silica gel C8, mean value of RM; for R M ^0: RP-TLC silica gel C8, methanol-water 30 to 70% (v/v), intercept of Soczewiński–Wachtmeister equation; for b: RP-TLC silica gel C8, slope of Soczewiński–Wachtmeister equation
Description: (§1) The ready-to-use TLC glass plates covered by octadecyl(C18)- and octyl(C8)-modified TLC silica layers were purchased from Merck (Darmstadt, Germany). Stock solutions (5 µL) of the analytes were spotted manually on the plates with the use of a micropipette from Brand (Wertheim, Germany). The mobile phases were prepared by mixing appropriate volumes of pure organic solvents and water (in step gradient by 10% (v/v)), in the following proportions: (a) methanol–water ranging from 30 to 70% (v/v), in the case of C8-bonded silica gel stationary phase; and (b) methanol–water ranging from 40 to 70% (v/v), in the case of C18-bonded silica gel stationary phase.
(§2) Before analysis, the chromatographic chamber (Twin Trough Chambers from CAMAG Philadelphia, USA) was saturated for 20 min. All TLC experiments were performed at room temperature (22 ± 2 °C). Chromatograms were developed using the ascending technique to a distance of 8 cm. The investigated substances were visualized under UV light at λ = 366 nm by CAMAG UV Lamp 4 and the Viewing Box 4 (Philadelphia, USA). […] The obtained retardation factors (RF) were collected in the Supplementary data sheets. The retention parameter, RM, was calculated for each compound according to the Bate-Smith and Westall formula: (7) RM=log(1/RF−1) and listed in Table S2. Next, the Soczewiński–Wachtmeister’s equation: RM = RM^0 + bC(8) was used in order to determine the basic lipophilic RP-TLC parameter RM^0 as well as commonly used hydrophobic constants m. Soczewiński–Wachtmeister’s equation presented a linear relationship between concentration of the organic solvent in mobile phase (C) and RM value. Moreover, mean value of RM was used for lipophilicity assessments.
(§3) Furthermore, C0 RP-TLC lipophilicity parameter, introduced by Bieganowska, has been calculated according to the formula:(9) C0=−RM^0/b.
(§4) The C0 parameter corresponds to the parameter φ0, previously proposed for the HPLC. This parameter relates to the concentration of the organic component in the mobile phase for which the distribution of the analyzed substance between the mobile and stationary phase is equal (1:1).
(§5) Also, the principal component analysis (PCA) was applied in order to extract information regarding the lipophilicity of solutes and formulate them as the first principal component (PC1). Calculation data matrixes included RM values of solutes for each modifier concentration in the mobile phase.

[2] = RP-TLC lipophilicity, silica gel C18, methanol-water; conditions: for C 0: RP-TLC silica gel C18, C0 = −RM^0/b; for PC1: RP-TLC silica gel C18, first principal component of RM values, contains 86.92% of information; for mRM: RP-TLC silica gel C18, mean value of RM; for R M ^0: RP-TLC silica gel C18, methanol-water 40 to 70% (v/v), intercept of Soczewiński–Wachtmeister equation; for b: RP-TLC silica gel C18, slope of Soczewiński–Wachtmeister equation
Description: as §1, §2, §3, §4, §5

[3] = MEKC lipophilicity (SDS micelles, pH 7.4); conditions: 50 mM SDS, HEPES/TRIS buffer pH 7.4, 25 °C
Description: All MEKC experiments were carried out with a P/ACE MDQ plus system (Sciex, Framingham, MA, USA) equipped with photodiode array detector (PDA) and controlled by 32 Karat software (version 10.2). The uncoated fused silica capillaries (50 µm i.d., Polymicro Technologies, West Yorkshire, UK) of 60 cm total length and 50.2 cm effective length were used. Prior to analysis, the capillary was rinsed with 0.1 M NaOH for 30 min, ultrapure water for 10 min, and background electrolyte (BGE) for 30 min. After each analysis, the capillary was conditioned with BGE for 2 min. The applied pressure for all rinsing operations was 345 kPa. The analytes were dissolved in BGE at concentration of 100 µg/mL with addition of quinine (micelles marker). As electroosmotic flow (EOF) marker, DMSO was used. The samples were hydrodynamically injected at 35 kPa for 5 s. The separations were performed by applying voltage of 20 kV with positive polarity and constant temperatures at 25 ± 0.1 °C. The BGE consisted of aqueous solution of 50 mM SDS and 120 mM HEPES /100 mM TRIS buffer of pH 7.4. The BGE was prepared each working day by dilution of stock solution. Detection was carried out at 200 and 280 nm with 8 Hz probing frequency. The logarithm of retention factor logk was calculated according to the equation introduced by Terabe and co-workers:(10) logkMEKC=log(tR−tEOF/tEOF(1−tR/tMC)) The established logk parameters are summarized in Table 2.

Structure (SMILES)	C 0 [1]	PC1 [1]	mRM [1]	R M ^0 [1]	b [1]	C 0 [2]	PC1 [2]	mRM [2]	R M ^0 [2]	b [2]	logk [3]	logk ([3]; listed as pipemidic acid)	logk ([3]; listed as enoxacin)
COc1c(N2CC3CCC[N+]4(CN5C(=N4)C(C(=O)O)=Cc4ccccc45)C3C2)c(F)cc2c(=O)c(C(=O)O)cn(C3CC3)c12.[Cl-] (stereo not shown) [Compound 15]	0.91	−3.52	1.19	2.63	−2.88	0.84	−1.12	1.24	3.56	−4.21	−0.250	–	–
CCn1cc(C(=O)O)c(=O)c2cc(F)c(N3CCNCC3)cc21 [Compound 18, reference compound]	1.27	−5.56	1.47	2.43	−1.90	1.24	−2.34	1.40	2.54	−2.06	0.103	–	–
CCn1cc(C(=O)O)c(=O)c2cnc(N3CCNCC3)nc21 [Compound 19, pipemidic acid, reference compound]	1.65	−3.91	1.30	1.87	−1.13	1.35	−1.24	1.24	2.39	−1.78	−0.170	−0.1697	–
CCn1cc(C(=O)O)c(=O)c2cc(F)c(N3CCNCC3)nc21 [Compound 23, enoxacin, reference compound]	1.23	−5.38	1.45	2.45	−2.00	1.37	−3.86	1.62	2.70	−1.98	0.156	–	0.1564

Next, values leading:

C 0 [1]	PC1 [1]	mRM [1]	R M ^0 [1]	b [1]	C 0 [2]	PC1 [2]	mRM [2]	R M ^0 [2]	b [2]	logk [3]	logk ([3]; listed as pipemidic acid)	logk ([3]; listed as enoxacin)	Structure (SMILES)
1.34	−4.09	1.29	2.06	−1.54	1.15	−1.08	1.22	2.33	−2.03	0.077	–	–	CCn1cc(C(=O)O)c(=O)c2cc(F)c(N3CCNC(C)C3)c(F)c21 (stereo not shown) [Compound 17, reference compound]
1.07	−3.81	1.21	2.27	−2.13	0.99	−1.40	1.28	2.85	−2.88	0.116	–	–	C[C@@H]1CN(c2c(F)c(N)c3c(=O)c(C(=O)O)cn(C4CC4)c3c2F)C[C@H](C)N1 [Compound 20, reference compound]
0.95	−4.29	1.26	2.68	−2.83	1.06	−1.63	1.31	2.69	−2.55	0.101	–	–	COc1c(N2CCNC(C)C2)c(F)cc2c(=O)c(C(=O)O)cn(C3CC3)c12 (stereo not shown) [Compound 21, reference compound]
